What was measured:
Assay in all cases: cells
Mo = format: functional, cell-based; settings: Homo sapiens
Description: SANGER: Inhibition of human Mo-T cell growth in a cell viability assay.

DMS-79 = format: functional, cell-based; settings: Homo sapiens;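 further: growth inhibition measured with a cell viability assay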
Description: SANGER: Inhibition of human DMS-79 cell growth in a cell viability assay.

NCI-H2030 = format: functional, cell-based, Homo sapiens; settings: Homo sapiens, NCI-H2030;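 further: growth inhibition of human NCI-H2030 cells, read out by a cell viability assay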
Description: SANGER: Inhibition of human NCI-H2030 cell growth in a cell viability assay.

BEN = format: functional, cell-based, Homo sapiens; settings: Homo sapiens, BEN;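 further: growth inhibition of the BEN cell line, read out with a cell viability assay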
Description: SANGER: Inhibition of human BEN cell growth in a cell viability assay.

8305C = format: functional, cell-based, Homo sapiens; settings: Homo sapiens, 8305C
Description: SANGER: Inhibition of human 8305C cell growth in a cell viability assay.

NCI-H596 = format: functional, cell-based, Homo sapiens; settings: Homo sapiens, NCI-H596;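 further: growth inhibition of NCI-H596 cells, read out with a cell viability assay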
Description: SANGER: Inhibition of human NCI-H596 cell growth in a cell viability assay.

TGBC24TKB = format: functional, cell-based, Homo sapiens; settings: Homo sapiens, TGBC24TKB;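 further: growth inhibition of human TGBC24TKB cells, read out with a cell viability assay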
Description: SANGER: Inhibition of human TGBC24TKB cell growth in a cell viability assay.

TCC-SUP = format: functional, cell-based, Homo sapiens; settings: Homo sapiens, TCC-SUP;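 further: growth inhibition of TCC-SUP cells, read out with a cell viability assay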
Description: SANGER: Inhibition of human TCCSUP cell growth in a cell viability assay.

CAL-54 = format: functional, cell-based, Homo sapiens; settings: Homo sapiens, CAL-54;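 further: growth inhibition of CAL-54 cells, read out by a viability measurement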
Description: SANGER: Inhibition of human CAL-54 cell growth in a cell viability assay.

QIMR-WIL = format: functional, cell-based; settings: Homo sapiens;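 further: growth inhibition of QIMR-WIL cells, read out with a cell viability assay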
Description: SANGER: Inhibition of human QIMR-WIL cell growth in a cell viability assay.

EW-1 = format: functional, cell-based, Homo sapiens; settings: Homo sapiens, EW-1;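 further: growth inhibition of the human EW-1 cell line, read out by a cell viability assay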
Description: SANGER: Inhibition of human EW-1 cell growth in a cell viability assay.

A498 = format: functional, cell-based, Homo sapiens; settings: Homo sapiens, A498;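 further: growth inhibition of human A498 cells, read out with a cell viability assay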
Description: SANGER: Inhibition of human A498 cell growth in a cell viability assay.

SK-MEL3 = format: functional, cell-based, Homo sapiens, SK-MEL-3; settings: Homo sapiens, SK-MEL3;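 further: growth inhibition of human SK-MEL-3 cells, read out with a cell viability assay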
Description: SANGER: Inhibition of human SK-MEL-3 cell growth in a cell viability assay.

D-392MG = format: functional, cell-based, Homo sapiens; settings: Homo sapiens, D-392MG
DK-MG = format: functional, cell-based, Homo sapiens; settings: Homo sapiens, DK-MG;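 further: growth inhibition of DK-MG cells, read out with a cell viability assay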
Description: SANGER: Inhibition of human DK-MG cell growth in a cell viability assay.

MDA-MB-361 = format: functional, cell-based, Homo sapiens; settings: Homo sapiens, MDA-MB-361
COR-L105 = format: functional, cell-based, Homo sapiens; settings: Homo sapiens, COR-L105;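 further: cell growth inhibition determined with a viability assay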
Description: SANGER: Inhibition of human COR-L105 cell growth in a cell viability assay.

SW1088 = format: functional, cell-based, Homo sapiens; settings: Homo sapiens, SW1088;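 further: growth inhibition of human SW1088 cells, read out by a cell viability assay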
Description: SANGER: Inhibition of human SW1088 cell growth in a cell viability assay.

A673 = format: functional, cell-based, Homo sapiens; settings: Homo sapiens, A673;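 further: growth inhibition of human A673 cells, read out through a cell viability assay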
Description: SANGER: Inhibition of human A673 cell growth in a cell viability assay.

C3A = format: functional, cell-based, Homo sapiens; settings: Homo sapiens, C3A;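 further: growth inhibition of C3A human cells, quantified with a cell viability readout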
Description: SANGER: Inhibition of human C3A cell growth in a cell viability assay.

SNB-75 = format: functional, cell-based, Homo sapiens; settings: Homo sapiens, SNB-75;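 further: cell viability assay measuring growth inhibition of human SNB-75 cells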
Description: SANGER: Inhibition of human SNB75 cell growth in a cell viability assay.

COLO-679 = format: functional, cell-based, Homo sapiens; settings: Homo sapiens, COLO-679
Description: SANGER: Inhibition of human COLO-679 cell growth in a cell viability assay.

SW1417 = format: functional, cell-based, Homo sapiens; settings: Homo sapiens, SW1417;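 further: growth inhibition of human SW1417 cells, read out with a cell viability assay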
Description: SANGER: Inhibition of human SW1417 cell growth in a cell viability assay.

C-33-A = format: functional, cell-based, Homo sapiens; settings: Homo sapiens, C-33-A;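 further: cell viability assay measuring growth inhibition of C-33-A cells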
Description: SANGER: Inhibition of human C-33-A cell growth in a cell viability assay.

NCI-H2052 = format: functional, cell-based, Homo sapiens; settings: Homo sapiens, NCI-H2052;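 further: growth inhibition of NCI-H2052 cells, read out with a cell viability assay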
Description: SANGER: Inhibition of human NCI-H2052 cell growth in a cell viability assay.

SW13 = format: functional, cell-based, Homo sapiens; settings: Homo sapiens, SW13;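 further: IC50 is inhibition of SW13 cell growth, read out with a cell viability assay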
Description: SANGER: Inhibition of human SW13 cell growth in a cell viability assay.

MSTO-211H = format: functional, cell-based, Homo sapiens; settings: Homo sapiens, MSTO-211H
Description: SANGER: Inhibition of human MSTO-211H cell growth in a cell viability assay.

LN-405 = format: functional, cell-based, Homo sapiens; settings: Homo sapiens, LN-405
Description: SANGER: Inhibition of human LN-405 cell growth in a cell viability assay.

EW-24 = format: functional, cell-based; settings: Homo sapiens;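 further: human EW-24 cancer cell line, growth inhibition read out via a cell viability assay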
Description: SANGER: Inhibition of human EW-24 cell growth in a cell viability assay.

HT-1376 = format: functional, cell-based, Homo sapiens; settings: Homo sapiens, HT-1376
Description: SANGER: Inhibition of human HT-1376 cell growth in a cell viability assay.

HSC-3 = format: functional, cell-based, Homo sapiens; settings: Homo sapiens, HSC-3
Description: SANGER: Inhibition of human HSC-3 cell growth in a cell viability assay.

PANC-03-27 = format: functional, cell-based, Homo sapiens; settings: Homo sapiens, PANC-03-27
Description: SANGER: Inhibition of human PANC-03-27 cell growth in a cell viability assay.

EKVX = format: functional, cell-based, Homo sapiens; settings: Homo sapiens, EKVX;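 further: growth inhibition of human EKVX cells, read out with a cell viability assay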
Description: SANGER: Inhibition of human EKVX cell growth in a cell viability assay.

LU-99A = format: functional, cell-based, Homo sapiens; settings: Homo sapiens, LU-99A;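 further: growth inhibition of LU-99A cells, read out with a cell viability assay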
Description: SANGER: Inhibition of human LU-99A cell growth in a cell viability assay.

EC-GI-10 = format: functional, cell-based, Homo sapiens; settings: Homo sapiens, EC-GI-10
Description: SANGER: Inhibition of human EC-GI-10 cell growth in a cell viability assay.

MDA-MB-415 = format: functional, cell-based; settings: Homo sapiens
SN12C = format: functional, cell-based, Homo sapiens; settings: Homo sapiens, SN12C;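 further: growth inhibition of human SN12C cells, measured by a cell viability assay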
Description: SANGER: Inhibition of human SN12C cell growth in a cell viability assay.

CAMA-1 = format: functional, cell-based, Homo sapiens; settings: Homo sapiens, CAMA-1;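 further: growth inhibition of CAMA-1 cells, read out with a cell viability assay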
Description: SANGER: Inhibition of human CAMA-1 cell growth in a cell viability assay.

NCI-H226 = format: functional, cell-based, Homo sapiens; settings: Homo sapiens, NCI-H226;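 further: cell viability read-out used to gauge growth inhibition of the cells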
Description: SANGER: Inhibition of human NCI-H226 cell growth in a cell viability assay.

HLE = format: functional, cell-based, Homo sapiens; settings: Homo sapiens, HLE;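 further: growth inhibition of human HLE cells, read out by a cell viability assay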
Description: SANGER: Inhibition of human HLE cell growth in a cell viability assay.

SK-HEP1 = format: functional, cell-based, Homo sapiens, SK-HEP-1; settings: Homo sapiens, SK-HEP1;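 further: cell viability readout used to quantify reduction in proliferation of human SK-HEP-1 cells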
Description: SANGER: Inhibition of human SK-HEP-1 cell growth in a cell viability assay.

Hs-578T = format: functional, cell-based, Homo sapiens; settings: Homo sapiens, Hs-578T
Description: SANGER: Inhibition of human Hs-578-T cell growth in a cell viability assay.

Calu-3 = format: functional, cell-based, Homo sapiens; settings: Homo sapiens, Calu-3;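 further: growth inhibition of human Calu-3 cells, determined with a cell viability assay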
Description: SANGER: Inhibition of human Calu-3 cell growth in a cell viability assay.

A-431 = format: functional, cell-based, Homo sapiens; settings: Homo sapiens, A-431;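 further: growth inhibition of A-431 cells, determined with a cell viability read-out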
Description: SANGER: Inhibition of human A431 cell growth in a cell viability assay.

no-10 = format: functional, cell-based, Homo sapiens; settings: Homo sapiens;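 further: growth inhibition of no-10 cells, read out with a cell viability assay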
Description: SANGER: Inhibition of human no-10 cell growth in a cell viability assay.

RERF-LC-MS = format: functional, cell-based, Homo sapiens; settings: Homo sapiens, RERF-LC-MS;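 further: growth inhibition of human RERF-LC-MS cells, read out by a cell viability assay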
Description: SANGER: Inhibition of human RERF-LC-MS cell growth in a cell viability assay.

CAL-27 = format: functional, cell-based, Homo sapiens; settings: Homo sapiens, CAL-27;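 further: Viability-based readout, IC50 reflecting inhibition of CAL-27 cell growth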
Description: SANGER: Inhibition of human CAL-27 cell growth in a cell viability assay.

PC-14 = format: functional, cell-based, Homo sapiens; settings: Homo sapiens, PC-14;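 further: cell viability assay measuring inhibition of PC-14 cell growth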
Description: SANGER: Inhibition of human PC-14 cell growth in a cell viability assay.

BT-474 = format: functional, cell-based, Homo sapiens; settings: Homo sapiens, BT-474
Description: SANGER: Inhibition of human BT-474 cell growth in a cell viability assay.

With `C=CCc1cccc(/C=N/NC(=O)CN2CCN(Cc3ccccc3)CC2)c1O` [PAC-1] the IC50 (Mo) was greater than 2.56 µM, the IC50 (DMS-79) was greater than 2.56 µM and the IC50 (NCI-H2030) was greater than 2.56 µM. For the same compound, the IC50 (BEN) was greater than 2.56 µM, the IC50 (8305C) was greater than 2.56 µM and the IC50 (NCI-H596) was greater than 2.56 µM. It also gave an IC50 (TGBC24TKB) greater than 2.56 µM, an IC50 (TCC-SUP) greater than 2.56 µM and an IC50 (CAL-54) greater than 2.56 µM. For the same compound, the IC50 (QIMR-WIL) was greater than 2.56 µM, the IC50 (EW-1) was greater than 2.56 µM and the IC50 (A498) was greater than 2.56 µM. For the same compound, the IC50 (SK-MEL3) was greater than 2.56 µM, the IC50 (D-392MG) was greater than 2.56 µM and the IC50 (DK-MG) was greater than 2.56 µM. The IC50 (MDA-MB-361) was greater than 2.56 µM, the IC50 (COR-L105) was greater than 2.56 µM and the IC50 (SW1088) was greater than 2.56 µM. The IC50 (A673) was greater than 2.56 µM, the IC50 (C3A) was greater than 2.56 µM and the IC50 (SNB-75) was greater than 2.56 µM. It also gave an IC50 (COLO-679) of 0.803 µM, an IC50 (SW1417) greater than 2.56 µM and an IC50 (C-33-A) greater than 2.56 µM. For the same compound, the IC50 (NCI-H2052) was greater than 2.56 µM, the IC50 (SW13) was greater than 2.56 µM and the IC50 (MSTO-211H) was greater than 2.56 µM. It also gave an IC50 (LN-405) greater than 2.56 µM, an IC50 (EW-24) greater than 2.56 µM and an IC50 (HT-1376) greater than 2.56 µM. The IC50 (HSC-3) was greater than 2.56 µM, the IC50 (PANC-03-27) was 0.76 µM and the IC50 (EKVX) was greater than 2.56 µM. For the same compound, the IC50 (LU-99A) was greater than 2.56 µM, the IC50 (EC-GI-10) was greater than 2.56 µM and the IC50 (MDA-MB-415) was greater than 2.56 µM. For the same compound, the IC50 (SN12C) was greater than 2.56 µM, the IC50 (CAMA-1) was greater than 2.56 µM and the IC50 (NCI-H226) was greater than 2.56 µM. For the same compound, the IC50 (HLE) was greater than 2.56 µM, the IC50 (SK-HEP1) was greater than 2.56 µM and the IC50 (Hs-578T) was greater than 2.56 µM. For the same compound, the IC50 (Calu-3) was greater than 2.56 µM, the IC50 (A-431) was greater than 2.56 µM and the IC50 (no-10) was greater than 2.56 µM. It also gave an IC50 (RERF-LC-MS) greater than 2.56 µM, an IC50 (CAL-27) greater than 2.56 µM and an IC50 (PC-14) greater than 2.56 µM. The IC50 (BT-474) was greater than 2.56 µM.

With `Cc1ccc(Nc2nccc(N(C)c3ccc4c(C)n(C)nc4c3)n2)cc1S(N)(=O)=O` [PAZOPANIB] the IC50 (Mo) was greater than 8 µM, the IC50 (DMS-79) was greater than 8 µM and the IC50 (NCI-H2030) was greater than 8 µM. For the same compound, the IC50 (BEN) was greater than 8 µM, the IC50 (8305C) was greater than 8 µM and the IC50 (NCI-H596) was greater than 8 µM. For the same compound, the IC50 (TGBC24TKB) was greater than 8 µM, the IC50 (TCC-SUP) was greater than 8 µM and the IC50 (CAL-54) was 3.28 µM. The IC50 (QIMR-WIL) was greater than 8 µM, the IC50 (EW-1) was greater than 8 µM and the IC50 (A498) was greater than 8 µM. It also gave an IC50 (SK-MEL3) greater than 8 µM, an IC50 (D-392MG) greater than 8 µM and an IC50 (DK-MG) of 5.72 µM. The IC50 (MDA-MB-361) was greater than 8 µM, the IC50 (COR-L105) was greater than 8 µM and the IC50 (SW1088) was greater than 8 µM. For the same compound, the IC50 (A673) was greater than 8 µM, the IC50 (C3A) was greater than 8 µM and the IC50 (SNB-75) was 6.57 µM. The IC50 (COLO-679) was greater than 8 µM, the IC50 (SW1417) was greater than 8 µM and the IC50 (C-33-A) was greater than 8 µM. For the same compound, the IC50 (NCI-H2052) was greater than 8 µM, the IC50 (SW13) was greater than 8 µM and the IC50 (MSTO-211H) was greater than 8 µM. For the same compound, the IC50 (LN-405) was greater than 8 µM, the IC50 (EW-24) was greater than 8 µM and the IC50 (HT-1376) was greater than 8 µM. It also gave an IC50 (HSC-3) greater than 8 µM, an IC50 (PANC-03-27) greater than 8 µM and an IC50 (EKVX) greater than 8 µM. It also gave an IC50 (LU-99A) greater than 8 µM, an IC50 (EC-GI-10) greater than 8 µM and an IC50 (MDA-MB-415) greater than 8 µM. For the same compound, the IC50 (SN12C) was greater than 8 µM, the IC50 (CAMA-1) was greater than 8 µM and the IC50 (NCI-H226) was greater than 8 µM. For the same compound, the IC50 (HLE) was 1.64 µM, the IC50 (SK-HEP1) was greater than 8 µM and the IC50 (Hs-578T) was greater than 8 µM. For the same compound, the IC50 (Calu-3) was greater than 8 µM, the IC50 (A-431) was greater than 8 µM and the IC50 (no-10) was greater than 8 µM. For the same compound, the IC50 (RERF-LC-MS) was greater than 8 µM, the IC50 (CAL-27) was greater than 8 µM and the IC50 (PC-14) was greater than 8 µM. The IC50 (BT-474) was greater than 8 µM.

`Cn1cncc1[C@@](N)(c1ccc(Cl)cc1)c1ccc2c(c1)c(-c1cccc(Cl)c1)cc(=O)n2C` [TIPIFARNIB] was tested, and the IC50 (Mo) was greater than 16 µM, the IC50 (DMS-79) was greater than 16 µM and the IC50 (NCI-H2030) was 2.35 µM. The IC50 (BEN) was 5.4 µM, the IC50 (8305C) was 0.976 µM and the IC50 (NCI-H596) was 1.82 µM. It also gave an IC50 (TGBC24TKB) greater than 16 µM, an IC50 (TCC-SUP) of 5.8 µM and an IC50 (CAL-54) of 11.9 µM. For the same compound, the IC50 (QIMR-WIL) was 0.0163 µM, the IC50 (EW-1) was 12.3 µM and the IC50 (A498) was greater than 16 µM. For the same compound, the IC50 (SK-MEL3) was 4.98 µM, the IC50 (D-392MG) was greater than 16 µM and the IC50 (DK-MG) was greater than 16 µM. For the same compound, the IC50 (MDA-MB-361) was 2.11 µM, the IC50 (COR-L105) was 7.24 µM and the IC50 (SW1088) was 8.57 µM. It also gave an IC50 (A673) of 15.3 µM, an IC50 (C3A) of 4.64 µM and an IC50 (SNB-75) of 9.02 µM. It also gave an IC50 (COLO-679) of 0.985 µM, an IC50 (SW1417) greater than 16 µM and an IC50 (C-33-A) of 4.49 µM. The IC50 (NCI-H2052) was greater than 16 µM, the IC50 (SW13) was 3.6 µM and the IC50 (MSTO-211H) was greater than 16 µM. It also gave an IC50 (LN-405) greater than 16 µM, an IC50 (EW-24) greater than 16 µM and an IC50 (HT-1376) of 11.6 µM. For the same compound, the IC50 (HSC-3) was 2.63 µM, the IC50 (PANC-03-27) was 5.73 µM and the IC50 (EKVX) was greater than 16 µM. It also gave an IC50 (LU-99A) of 7.09 µM, an IC50 (EC-GI-10) greater than 16 µM and an IC50 (MDA-MB-415) of 14.2 µM. It also gave an IC50 (SN12C) of 13.2 µM, an IC50 (CAMA-1) greater than 16 µM and an IC50 (NCI-H226) greater than 16 µM. The IC50 (HLE) was 0.448 µM, the IC50 (SK-HEP1) was 0.714 µM and the IC50 (Hs-578T) was greater than 16 µM. The IC50 (Calu-3) was 4.43 µM, the IC50 (A-431) was 0.655 µM and the IC50 (no-10) was greater than 16 µM. The IC50 (RERF-LC-MS) was greater than 16 µM, the IC50 (CAL-27) was 3.1 µM and the IC50 (PC-14) was greater than 16 µM. For the same compound, the IC50 (BT-474) was greater than 16 µM.
